# Where a name gives a salt, the structure may show the parent alone. Read-outs that look alike come from different tables or passages of the source.
# How the values were obtained:
# [1] = target: T1, baculovirus-expressed ALK (Homo sapiens, UniProt Q9UM73); assay: ALK Kinase Assay (ELISA-type, time-resolved fluorescence); assay type: biochemical
# T1 construct: host or cells: baculovirus expression system
# Outline: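 Plates coated with phospholipase C-γ substrate (10 μg/mL in TBS); reaction started with 30 ng/ml ALK and run 15 min at 37° C. Phosphorylated substrate detected with Eu-N1-labeled PT66 antibody. IC50 from sigmoidal variable-slope fit of percent inhibition vs log concentration.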
# [2] = target: T2, c-Met (cytoplasmic domain) (Homo sapiens, UniProt P08581); assay: c-Met Kinase Assay (same methods as for ALK, with modifications); assay type: biochemical
# T2 construct: 10 ng/mL c-Met (cytoplasmic domain, Invitrogen Corporation #PV3143); purchased Invitrogen Corporation PV3143
# Outline: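 Plates were coated with phospholipase C-γ substrate (10 μg/mL) in TBS, and the reaction was started with 10 ng/mL c-Met cytoplasmic domain and run 15 min at 37 °C. Phosphoproduct was detected with Eu-N1-labelled PT66 antibody. IC50 came from a variable-slope sigmoidal fit of percent inhibition vs log concentration.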
# [3] = 1 μM ATP (Km level), read-out: ALK Activity (ALK Kinase Inhibition, IC50)
# [4] = 1 μM ATP (Km level), read-out: cMet Activity (c-Met Kinase Inhibition, IC50)
# [5] = ALK kinase inhibition, 1 μM ATP (Km level), read-out: ALK Activity
# [6] = c-Met kinase inhibition, 1 μM ATP (Km level), read-out: cMet Activity
# [7] = ALK kinase inhibition, 1 μM ATP, read-out: ALK Activity
# [8] = c-Met kinase inhibition, 1 μM ATP, read-out: cMet Activity
# [9] = 1 μM ATP (Km level), 30 ng/ml ALK, 37° C., 15 minutes, read-out: ALK Activity (ALK kinase inhibition, IC50 class)
# [10] = 1 μM ATP (Km level), 10 ng/mL c-Met, read-out: cMet Activity (c-Met kinase inhibition, IC50 class)
# T2 sequence (P08581 956-1390 limits assumed): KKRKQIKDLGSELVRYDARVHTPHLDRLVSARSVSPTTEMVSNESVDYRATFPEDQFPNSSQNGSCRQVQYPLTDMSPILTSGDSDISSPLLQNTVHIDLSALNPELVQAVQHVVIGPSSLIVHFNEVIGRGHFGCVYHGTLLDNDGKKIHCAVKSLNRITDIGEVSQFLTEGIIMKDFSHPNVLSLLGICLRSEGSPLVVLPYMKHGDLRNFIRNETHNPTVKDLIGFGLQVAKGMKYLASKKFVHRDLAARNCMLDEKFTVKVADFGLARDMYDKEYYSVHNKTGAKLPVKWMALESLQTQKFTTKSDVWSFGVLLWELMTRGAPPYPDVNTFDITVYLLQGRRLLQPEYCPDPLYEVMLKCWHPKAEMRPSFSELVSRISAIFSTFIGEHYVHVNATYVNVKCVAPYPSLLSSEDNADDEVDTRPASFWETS
# T1 sequence (Q9UM73 19-1620): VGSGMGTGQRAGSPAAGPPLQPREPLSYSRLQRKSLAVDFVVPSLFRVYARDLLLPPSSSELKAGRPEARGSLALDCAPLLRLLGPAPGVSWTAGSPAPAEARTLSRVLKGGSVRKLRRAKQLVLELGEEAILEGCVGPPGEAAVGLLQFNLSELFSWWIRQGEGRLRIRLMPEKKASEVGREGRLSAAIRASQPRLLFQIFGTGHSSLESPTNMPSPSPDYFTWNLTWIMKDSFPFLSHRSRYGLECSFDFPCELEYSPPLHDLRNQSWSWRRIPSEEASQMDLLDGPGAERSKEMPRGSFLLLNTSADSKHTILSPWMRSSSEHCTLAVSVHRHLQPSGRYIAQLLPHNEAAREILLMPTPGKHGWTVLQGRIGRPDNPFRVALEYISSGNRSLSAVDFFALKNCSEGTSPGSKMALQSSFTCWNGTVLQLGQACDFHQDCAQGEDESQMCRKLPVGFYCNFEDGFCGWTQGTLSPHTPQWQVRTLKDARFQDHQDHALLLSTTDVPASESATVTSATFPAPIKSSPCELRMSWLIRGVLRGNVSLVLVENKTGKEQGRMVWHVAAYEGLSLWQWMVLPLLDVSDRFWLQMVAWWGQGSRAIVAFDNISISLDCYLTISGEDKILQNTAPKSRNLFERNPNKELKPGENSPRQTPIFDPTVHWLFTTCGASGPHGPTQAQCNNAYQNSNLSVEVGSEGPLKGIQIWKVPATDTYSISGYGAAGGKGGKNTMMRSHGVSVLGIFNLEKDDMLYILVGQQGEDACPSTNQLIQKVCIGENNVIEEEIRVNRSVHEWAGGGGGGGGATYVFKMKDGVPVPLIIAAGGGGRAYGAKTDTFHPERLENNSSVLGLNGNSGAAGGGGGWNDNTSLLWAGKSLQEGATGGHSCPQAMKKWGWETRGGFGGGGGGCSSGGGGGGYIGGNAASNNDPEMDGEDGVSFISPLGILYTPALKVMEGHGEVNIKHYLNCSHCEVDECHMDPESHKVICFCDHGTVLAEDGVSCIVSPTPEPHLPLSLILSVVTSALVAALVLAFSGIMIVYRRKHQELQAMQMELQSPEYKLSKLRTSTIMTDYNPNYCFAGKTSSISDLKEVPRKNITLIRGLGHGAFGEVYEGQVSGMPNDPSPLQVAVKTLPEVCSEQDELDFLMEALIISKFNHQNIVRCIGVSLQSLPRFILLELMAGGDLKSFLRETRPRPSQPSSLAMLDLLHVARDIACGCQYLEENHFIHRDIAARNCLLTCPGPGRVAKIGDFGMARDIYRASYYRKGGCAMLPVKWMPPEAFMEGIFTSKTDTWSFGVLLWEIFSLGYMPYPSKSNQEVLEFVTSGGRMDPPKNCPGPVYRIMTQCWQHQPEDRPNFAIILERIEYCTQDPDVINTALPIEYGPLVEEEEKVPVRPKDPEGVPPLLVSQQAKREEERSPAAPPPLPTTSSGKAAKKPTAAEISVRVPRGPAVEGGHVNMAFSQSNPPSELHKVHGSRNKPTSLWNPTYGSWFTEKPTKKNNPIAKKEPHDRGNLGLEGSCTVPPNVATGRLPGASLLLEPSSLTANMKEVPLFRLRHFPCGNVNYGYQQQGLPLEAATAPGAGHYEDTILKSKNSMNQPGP
structure (smiles),measurement,setting,value
"COc1cc2c(cc1Nc1ncc(Cl)c(Nc3ccccc3S(=O)(=O)N(C)C)n1)CCN(CC1COCCO1)CC2 (stereo not drawn) [Example 637, 2-[5-Chloro-2-(3-[1,4]dioxan-2-ylmethyl-8-methoxy-2,3,4,5-tetrahydro-1H-benzo[d]azepin-7-ylamino)-pyrimidin-4-ylamino]-N,N-dimethyl-benzenesulfonamide]",IC50,[1]; [3],< 0.1 µM
same,IC50,[2]; [4],1 to 10 µM
"CCN1CCN(CC)c2cc(Nc3ncc(Cl)c(Nc4c(F)cccc4C(=O)NC)n3)ccc2C1 [Example 716, 2-[5-Chloro-2-(1,4-diethyl-2,3,4,5-tetrahydro-1H-1,4-benzodiazepin-8-ylamino)-pyrimidin-4-ylamino]-3-fluoro-N-methyl-benzamide]",IC50,[1]; [3],< 0.1 µM
same,IC50,[2]; [4],< 0.1 µM
"CCOC(=O)N1C2CCC1c1cc(Nc3ncc(Cl)c(Nc4ccccc4C(=O)NC)n3)ccc1C2 (stereo not drawn) [Example 67, 4-[5-Chloro-4-(2-methylcarbamoyl-phenylamino)-pyrimidin-2-ylamino]-12-aza-tricyclo[7.2.1.0*2,7*]dodeca-2(7),3,5-triene-12-carboxylic acid ethyl ester]",IC50,[1]; [5],< 0.1 µM
same,IC50,[2]; [6],< 0.1 µM
"COCCN1CCN(C)c2ccc(Nc3ncc(Cl)c(N[C@@H]4CCCC[C@H]4NS(C)(=O)=O)n3)cc2C1 [Example 430, N-((1R,2R)-2-{5-Chloro-2-[4-(2-methoxy-ethyl)-1-methyl-2,3,4,5-tetrahydro-1H-benzo[e][1,4]diazepin-7-ylamino]-pyrimidin-4-ylamino}-cyclohexyl)-methanesulfonamide]",IC50,[1]; [5],< 0.1 µM
same,IC50,[2]; [6],1 to 10 µM
"CCN1CC(=O)N(CC)c2cc(Nc3ncc(Cl)c(Nc4c(F)cccc4C(=O)NC)n3)ccc2C1 [Example 1870, 2-[5-Chloro-2-(1,4-diethyl-2-oxo-2,3,4,5-tetrahydro-1H-benzo[e][1,4]diazepin-8-ylamino)-pyrimidin-4-ylamino]-3-fluoro-N-methyl-benzamide]",IC50,[1]; [7],0.1 to 1 µM
same,IC50,[2]; [8],< 0.1 µM
"CCN1CCc2ccc(Nc3ncc(Cl)c(N[C@H]4CCCC[C@@H]4C(N)=O)n3)cc2CC1 [Example 1502, (1S,2S)-2-[5-Chloro-2-(3-ethyl-2,3,4,5-tetrahydro-1H-enzo[d]azepin-7-ylamino)-pyrimidin-4-ylamino]-cyclohexanecarboxylic acid amide]",IC50,[1]; [7],0.1 to 1 µM
same,IC50,[2]; [8],> 10 µM
"CNC(=O)c1ccccc1Nc1nc(Nc2ccc3c(c2Cl)C2CCC(C3)N2C(C)C)ncc1Cl (stereo not drawn) [Example 86, 2-[5-Chloro-2-(3-chloro-12-isopropyl-12-aza-tricyclo[7.2.1.0*2,7*]dodeca-2(7),3,5-trien-4-ylamino)-pyrimidin-4-ylamino]-N-methyl-benzamide]",IC50,[1]; [5],< 0.1 µM
same,IC50,[2]; [6],0.1 to 1 µM
"CNC(=O)c1cccc(Cl)c1Nc1nc(Nc2ccc3c(c2)CCC(=O)NC3(C)C)ncc1Cl [Example 1828, 3-Chloro-2-(5-chloro-2-(1,1-dimethyl-3-oxo-2,3,4,5-tetrahydro-1H-benzo[c]azepin-7-ylamino)pyrimidin-4-ylamino)-N-methylbenzamide]",IC50,[1]; [7],< 0.1 µM
same,IC50,[2]; [8],< 0.1 µM
"CNC(=O)c1ccccc1Nc1nc(Nc2c(OC)ccc3c2CCOC(=O)N3C)ncc1Cl [Example 1517, 2-[5-Chloro-2-(2-methoxy-5-methyl-6-oxo-5,6,8,9-tetrahydro-7-oxa-5-aza-benzocyclohepten-1-ylamino)-pyrimidin-4-ylamino]-N-methyl-benzamide]",IC50,[1]; [7],1 to 10 µM
same,IC50,[2]; [8],> 10 µM
"CC(C)N1C(=O)CCCc2cc(Nc3ncc(Cl)c(NC4C5C=CC(C5)C4C(N)=O)n3)ccc21 (stereo not drawn) [Example 669, 3-[5-Chloro-2-(1-isopropyl-2-oxo-2,3,4,5-tetrahydro-1H-benzo[b]azepin-7-ylamino)-pyrimidin-4-ylamino]-bicyclo[2.2.1]hept-5-ene-2-carboxylic acid amide]",IC50,[1]; [3],< 0.1 µM
same,IC50,[2]; [4],< 0.1 µM
"COc1cc2c(cc1Nc1ncc(Cl)c(N[C@@H]3CCCC[C@H]3NS(C)(=O)=O)n1)CCC(NCC(F)F)CC2 (single isomer, unassigned) [Example 1058]",IC50,[1]; [9],< 0.1 µM
same,IC50,[2]; [10],> 10 µM
"CN1CCN(C)c2c(Nc3ncc(Cl)c(N[C@@H]4CCCC[C@H]4NS(C)(=O)=O)n3)cccc2C1=O [Example 542, N-{(1R,2R)-2-[5-Chloro-2-(1,4-dimethyl-5-oxo-2,3,4,5-tetrahydro-1H-benzo[e][1,4]diazepin-9-ylamino)-pyrimidin-4-ylamino]-cyclohexyl} methanesulfonamide]",IC50,[1]; [3],< 0.1 µM
same,IC50,[2]; [4],> 10 µM
"COCCN1CCc2ccc(Nc3ncc(Cl)c(Nc4c(F)cccc4OC4CCOCC4)n3)cc2CC1 [Example 1282, 5-Chloro-N(4)-[2-fluoro-6-(tetrahydro-pyran-4-yloxy)-phenyl]-N(2)-[3-(2-methoxy-ethyl)-2,3,4,5-tetrahydro-1H-3-benzazepin-7-yl]-pyrimidine-2,4-diamine]",IC50,[1]; [9],< 0.1 µM
same,IC50,[2]; [10],1 to 10 µM
"CNC(=O)c1ccc(Nc2nc(Nc3cc4c(cc3OC)CCN(CC(=O)N(C)C)CC4)ncc2Cl)c(OC)c1 [Example 1176, 4-[5-Chloro-2-(3-dimethylcarbamoylmethyl-8-methoxy-2,3,4,5-tetrahydro-1H-benzo[d]azepin-7-ylamino)-pyrimidin-4-ylamino]-3-methoxy-N-methyl-benzamide]",IC50,[1]; [9],< 0.1 µM
same,IC50,[2]; [10],> 10 µM
"CN1C(=O)OCCc2cc(Nc3ncc(Cl)c(Nc4c(F)cccc4OCCO)n3)ccc21 [Example 1732, 2-{5-Chloro-4-[2-fluoro-6-(2-hydroxy-ethoxy)-phenylamino]-pyrimidin-2-ylamino}-5-methyl-8,9-dihydro-5H-7-oxa-5-aza-benzocyclohepten-6-one]",IC50,[1]; [7],< 0.1 µM
same,IC50,[2]; [8],< 0.1 µM
"COCCN1CCc2cc(Nc3ncc(Cl)c(Nc4cc(Cl)ccc4OC)n3)c(OC)cc2CC1 [Example 243, 5-Chloro-N*4*-(5-chloro-2-methoxy-phenyl)-N*2*-[8-methoxy-3-(2-methoxy-ethyl)-2,3,4,5-tetrahydro-1H-benzo[d]azepin-7-yl]-pyrimidine-2,4-diamine]",IC50,[1]; [5],< 0.1 µM
same,IC50,[2]; [6],> 10 µM
"COc1cc2c(cc1Nc1ncc(Cl)c(N[C@@H]3CCCC[C@H]3NS(C)(=O)=O)n1)CCN(CCO)CC2 [Example 1531, N-((1R,2R)-2-{5-Chloro-2-[3-(2-hydroxy-ethyl)-8-methoxy-2,3,4,5-tetrahydro-1H-3-benzazepin-7-ylamino]-pyrimidin-4-ylamino}-cyclohexyl)-methanesulfonamide]",IC50,[1]; [7],< 0.1 µM
same,IC50,[2]; [8],> 10 µM
"NC(=O)[C@@H]1[C@H](Nc2nc(Nc3ccc4c(c3)CCC(=O)CC4)ncc2Cl)[C@H]2C=C[C@@H]1C2 (relative stereo) [Example 173, (2-exo,3-exo)-3-[5-Chloro-2-(7-oxo-6,7,8,9-tetrahydro-5H-benzocyclo-hepten-2-ylamino)-pyrimidin-4-ylamino]-bicyclo[2.2.1]hept-5-ene-2-carboxylic acid amide; hydrochloride]",IC50,[1]; [5],< 0.1 µM
same,IC50,[2]; [6],0.1 to 1 µM
"C#CCNC(=O)c1cccc(F)c1Nc1nc(Nc2ccc3c(c2)N(CCN2CCCC2)CCCC3(C)C)ncc1Cl [Example 1609, 2-{5-Chloro-2-[5,5-dimethyl-1-(2-pyrrolidin-1-yl-ethyl)-2,3,4,5-tetrahydro-1H-benzo[b]azepin-8-ylamino]-pyrimidin-4-ylamino}-3-fluoro-N-prop-2-ynyl-benzamide]",IC50,[1]; [7],< 0.1 µM
same,IC50,[2]; [8],0.1 to 1 µM
"COc1cc2c(cc1Nc1ncc(Cl)c(Nc3ccccc3S(=O)(=O)N(C)C)n1)CCNC(=O)C2 [Example 1194, 2-[5-Chloro-2-(8-methoxy-2-oxo-2,3,4,5-tetrahydro-1H-benzo[d]azepin-7-ylamino)-pyrimidin-4-ylamino]-N,N-dimethyl-benzenesulfonamide]",IC50,[1]; [9],< 0.1 µM
same,IC50,[2]; [10],1 to 10 µM
"CC1(C)CCC(=O)Nc2ccc(Nc3ncc(Cl)c(Nc4ccccc4-c4nc(C(F)(F)F)c[nH]4)n3)cc21 [Example 1010, 7-{5-Chloro-4-[2-(4-trifluoromethyl-1H-imidazol-2-yl)-phenylamino]-pyrimidin-2-ylamino}-5,5-dimethyl-1,3,4,5-tetrahydro-benzo[b]azepin-2-one]",IC50,[1]; [3],0.1 to 1 µM
same,IC50,[2]; [4],1 to 10 µM
"CNC(=O)c1ccccc1Nc1nc(Nc2ccc3c(c2)CC(=O)N(C)CC3)ncc1Cl [Example 1815, 2-[5-Chloro-2-(3-methyl-4-oxo-2,3,4,5-tetrahydro-1H-benzo[d]azepin-7-ylamino)-pyrimidin-4-ylamino]-N-methylbenzamide]",IC50,[1]; [7],1 to 10 µM
same,IC50,[2]; [8],0.1 to 1 µM
"CC1(C)CCCN(CCN2CCCC2)c2cc(Nc3ncc(Cl)c(N[C@H]4[C@@H](C(N)=O)[C@@H]5C=C[C@H]4C5)n3)ccc21 [Example 1606, (1S,2S,3R,4R)-3-{5-Chloro-2-[5,5-dimethyl-1-(2-pyrrolidin-1-yl-ethyl)-2,3,4,5-tetrahydro-1H-benzo[b]azepin-8-ylamino]-pyrimidin-4-ylamino}-bicyclo[2.2.1]hept-5-ene-2-carboxylic acid amide]",IC50,[1]; [7],< 0.1 µM
same,IC50,[2]; [8],1 to 10 µM
"CNC(=O)c1ccccc1Nc1nc(Nc2c(OC)ccc3c2CCC(NCC(F)F)CC3)ncc1Cl (stereo not drawn) [Example 1078, 2-{5-Chloro-2-[7-(2,2-difluoro-ethylamino)-2-methoxy-6,7,8,9-tetrahydro-5H-benzocyclohepten-1-ylamino]-pyrimidin-4-ylamino}-N-methyl-benzamide]",IC50,[1]; [9],0.1 to 1 µM
same,IC50,[2]; [10],> 10 µM

# Source: patent US8148391B2 (Cephalon, Inc., priority 2006, dated 2012)
